Measured values taken from patent US20240344108A1, “GALACTOSE RAPID QUANTITATIVE DETECTION SYSTEM AND USE THEREOF” (Avalon HepaPOC Limited, priority 2018, published 2024).
Where two headings read alike, the source gives them in different places. Values belong to the molecule of their own block, whether it stands above or below them.

Legend:
galactose dehydrogenase [1] = target: T1, galactose dehydrogenase (Pseudomonas fluorescens, UniProt P11886); assay: Stabilizer analysis: linearity test of the galactose test strip system with different stabilizers; conditions: 0.05%, 2.5% and 5.5%
T1 construct: purchased
T1 sequence (P11886 1-304): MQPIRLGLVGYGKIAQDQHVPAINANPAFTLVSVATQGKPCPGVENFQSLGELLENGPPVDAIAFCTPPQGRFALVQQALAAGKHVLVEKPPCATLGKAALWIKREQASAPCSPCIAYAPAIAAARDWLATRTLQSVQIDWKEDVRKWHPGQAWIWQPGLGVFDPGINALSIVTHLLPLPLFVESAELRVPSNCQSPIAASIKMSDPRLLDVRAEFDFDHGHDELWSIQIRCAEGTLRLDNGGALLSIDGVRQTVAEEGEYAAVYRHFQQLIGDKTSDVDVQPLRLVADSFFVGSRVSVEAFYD
Procedure: Galactochek Blood Galactose Meters, the galactose rapid detection system (galactose dehydrogenase concentration: 13.39%) with different types of stabilizers and concentrations, and YSI 2900 Automatic analyzer.
All chemicals were purchased from Sigma-Aldrich (St. Louis, MO). A stock solution of galactose at 20 mg/mL was prepared with reverse osmosis water. The standard solutions are used to prepare different galactose concentration blood sample. The final concentration of galactose in blood were 200, 450, 800, 1150 and 1500 μg/mL.
Obtain the R^2 value of the linearity test result of different strip test groups to evaluate that which type of stabilizer and concentration were suitable to be used in the system. In addition, % CV≤20% at galactose concentration range of 200-250 μg/mL, and % CV≤15% at galactose concentration range of 251-1500 μg/mL.

galactose dehydrogenase [2] = target: T1, galactose dehydrogenase; assay: Electrochemical response after galactose dehydrogenase immobilization and drying onto the biosensor with protectant; conditions: protectant used as stabilizer during immobilization and drying
From the text: The electrochemistry-based biosensor is designed as a test strip of electrode containing a reaction zone where galactose within the blood sample is to react with galactose metabolic enzymes, leading to the generation of an electrochemical signal. Two galactose-catalyzing enzymes, galactose dehydrogenase (GD) and galactose oxidase (GO) capable of generating electrochemical information, were selected for embedded immobilization and drying onto the electrode to enable electrochemical signal production. […] However, GO catalyzes the oxidation of primary alcohols and sugars (including d-galactose and lactose) in the presence of oxygen, thus impacting the accuracy of quantitation. Aggravatingly, excessive oxygen can compete with the electron mediator of the oxidase-based amperometric strip for electrons, thus resulting in underestimation of galactose measurement. This poses a challenge in point-of-care (POC) scenarios where fresh whole blood sample, rich in oxygen due to prolonged exposure to the atmosphere, or from critically ill patients receiving oxygen support, are utilized.
Galactose dehydrogenase, on the other hand, catalyzes d-galactose with high specificity without the involvement of oxygen. The enzyme was therefore used to be immobilized and dried onto the biosensor. […]

clinical = conditions: human, in vivo
From the text: The user needs to drink the oral galactose composition first, wherein the content of the galactose is 1%-80%, preferably 4%-40%, by weight of the total galactose composition, wherein the buffer solution can be not added or can be added to the total weight of 0.001%-5%, and the antioxidant can be not added or can be added to the total weight of 0.001%-5%. Appropriate formula can be prepared by selecting the buffer and the antioxidant, and adding the content of the following ingredients: antioxidant of 0.01M-1M selected from a group including vitamin C, sodium bisulfite, vitamin A, vitamin E, flavonoids, polyphenols, Ethylenediaminetetraacetic acid (EDTA), Diethylenetriaminepentaacetic acid (DTPA), and NTA-Nitrilotriacetate acid (NTA); and/or buffer solution of 0.01M-1M selected from a group including acetic buffer, citrate buffer, phosphate buffer, acetate buffer, carbonate buffer, ascorbic acid buffer, and triethanolamine buffer with adjustment of the pH values ranged 4.0-9.0. A stable formula can be obtained by adding 0.01% citrate buffer and 0.5% sodium bisulfite with a pH value of 4.5. […]
Before sampling biological sample, wipe the fingertips with alcohol cotton. […] In addition, the potential of this readout can be transmitted to the others including medical practitioners through Bluetooth or similar connection through a mobile phone or computer. […]

[3] = Intravenous injection galactose GSP test (blood galactose after intravenous galactose); format: in vivo; conditions: human, plasma, 0.5 g/kg, average ± standard error
Procedure: The conventional detection method is used for intravenous injection of 0.5 g/kg galactose after fasting for 8 hours, and measured the galactose concentration in plasma after 60 minutes (Tang H. S. et al. (1992) Digestion, 52:222-231; Ranek L. et al. (1983) Clin. Physiol. 3:173-178). The measurement method comprises: drawing a measurement curve according to a relationship between different concentrations of standard galactose solutions and light absorption values thereof; adding HClO4 in the extracted blood and shaking for mixing, then taking supernatant by centrifugation; adding KOH into the supernatant and shaking for mixing, then taking supernatant by centrifugation again; and then adding galactose dehydrogenase into the supernatant and placing in a dark room for 60 minutes to avoid color reaction inaccuracy for preparing of a specimen and measuring the light absorption value thereof; and finally finding the concentration value by the measurement curve. However, the detection process is complicated and time-consuming, and requires using a variety of medicaments. Therefore, it takes lengthy procedure to learn the detecting result.
The oral administration galactose OGSP values of the subjects in the liver function normal group are in the range 318±27 μg/ml (average±standard error) with the minimum value 18 μg/ml and maximum value 887 μg/ml. […] The oral administration galactose OGSP values of the subjects in the liver function severely impaired group are in the range 777±48 μg/ml with the minimum value 293 μg/ml and maximum value 1499 μg/ml. […] Particularly, the oral administration galactose OGSP value is higher than the intravenous injection galactose GSP value. […] The oral administration galactose OGSP values of the subjects in the liver function severely impaired group are mainly in the range of 681-873 μg/ml (average+2*standard error). […] Therefore, further liver function tests should be taken in the subjects whose OGSP value is greater than 370 μg/ml. In additional to intravencous injection, similar results were obtained by other injection or other administration ways.

[4] = average ± standard error, literature values, cited from earlier work

SMILES: NCC(=O)O [Glycine, glycine]
- suitability as stabilizer in the system (galactose dehydrogenase [1]): not suitable

SMILES: OC[C@H]1O[C@H](O[C@H]2O[C@H](CO)[C@@H](O)[C@H](O)[C@H]2O)[C@H](O)[C@@H](O)[C@@H]1O [Trehalose, trehalose]
- galactose-dependent electrochemical signal of GD-based biosensor (galactose dehydrogenase [2]): successfully preserved the activity of enzyme

- concentration at 60 min (clinical; OGSP maximum value): 887 µg/mL
- concentration at 60 min (clinical; OGSP values mainly in the range): 510 to 670 µg/mL
- concentration at 60 min ([3]; Mild or moderate impairment of liver function (N = 31)): 359 ± 10 µg/mL
- concentration at 60 min ([3]; Normal liver function (N = 56)): 174 ± 8 µg/mL
- concentration at 60 min ([3]; Severe impairment of liver function (N = 40)): 667 ± 29 µg/mL
SMILES: O=C[C@H](O)[C@@H](O)[C@@H](O)[C@H](O)CO [galactose]
- IV GSP, Digestion 1992; 52: 222-231 ([4]; Mild or moderate impairment of liver function): 423 ± 26.0 µg/mL
- IV GSP, Digestion 1992; 52: 222-231 ([4]; Normal liver function): 247 ± 16.5 µg/mL
- IV GSP, Digestion 1992; 52: 222-231 ([4]; Severe impairment of liver function): 630 ± 41.0 µg/mL

SMILES: OC[C@H]1O[C@@](CO)(O[C@H]2O[C@H](CO)[C@@H](O)[C@H](O)[C@H]2O)[C@@H](O)[C@@H]1O [Sucrose, sucrose]
- suitability as stabilizer in the system (galactose dehydrogenase [1]): not suitable

SMILES: OC[C@@H](O)[C@@H](O)[C@H](O)[C@H](O)CO [Mannitol, mannitol]
- suitability as stabilizer in the system (galactose dehydrogenase [1]): not suitable
